Measured values reported in US9732075B2, “Benzimidazole-proline derivatives” (IDORSIA PHARMACEUTICALS LTD, priority 2012, dated 2017).

Legend:
[1] = molecular target: human orexin-1 receptor (Homo sapiens (Human), UniProt O43613); test: In vitro assay: intracellular calcium measurements (FLIPR), antagonistic activity; format: cell-based; conditions: CHO cells expressing human orexin-1 receptor, orexin-A agonist, geometric mean, read-out: IC50 Ox1
Method in brief: (§1)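 Read-out: FLIPR fluo-4 calcium peak height in CHO cells bearing human orexin-1 or orexin-2 receptor, relative to orexin-A (approx. EC70) with vehicle. Antagonist preincubation 120 min; agonist orexin-A at 3 nM final. IC50 possibly normalized to an on-plate reference compound.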

[2] = molecular target: human orexin-2 receptor (Homo sapiens (Human), UniProt O43614); test: as above; format: cell-based; conditions: CHO cells expressing human orexin-2 receptor, orexin-A agonist, geometric mean, read-out: IC50 Ox2
Method in brief: as §1

human orexin-1 receptor, sequence (O43613 whole entry): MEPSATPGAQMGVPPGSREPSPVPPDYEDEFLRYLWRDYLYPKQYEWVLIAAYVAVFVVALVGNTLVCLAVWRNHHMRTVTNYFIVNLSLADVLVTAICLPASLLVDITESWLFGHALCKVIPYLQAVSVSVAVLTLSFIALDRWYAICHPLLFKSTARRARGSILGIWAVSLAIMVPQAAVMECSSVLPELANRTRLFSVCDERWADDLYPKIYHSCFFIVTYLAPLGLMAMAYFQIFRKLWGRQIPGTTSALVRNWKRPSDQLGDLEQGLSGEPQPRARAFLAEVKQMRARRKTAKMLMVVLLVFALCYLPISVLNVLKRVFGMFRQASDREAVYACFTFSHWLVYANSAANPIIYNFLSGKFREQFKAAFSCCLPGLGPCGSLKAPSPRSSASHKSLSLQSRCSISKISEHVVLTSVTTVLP
human orexin-2 receptor, sequence (O43614 whole entry): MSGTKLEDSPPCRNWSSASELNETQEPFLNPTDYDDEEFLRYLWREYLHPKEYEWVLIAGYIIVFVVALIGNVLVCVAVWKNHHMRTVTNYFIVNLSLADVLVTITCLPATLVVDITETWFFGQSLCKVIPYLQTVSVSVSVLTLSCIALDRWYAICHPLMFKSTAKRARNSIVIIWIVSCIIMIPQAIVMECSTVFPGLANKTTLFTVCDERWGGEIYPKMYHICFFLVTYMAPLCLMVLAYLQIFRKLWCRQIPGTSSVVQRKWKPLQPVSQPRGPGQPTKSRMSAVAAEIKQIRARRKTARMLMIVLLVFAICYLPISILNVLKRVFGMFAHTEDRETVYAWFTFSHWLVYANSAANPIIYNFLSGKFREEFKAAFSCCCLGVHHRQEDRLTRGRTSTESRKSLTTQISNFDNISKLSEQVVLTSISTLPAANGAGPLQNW

| SMILES | IC50 [1] [nM] | IC50 [2] [nM] |
| --- | --- | --- |
| CO[C@@H]1C[C@@H](c2nc3ccc(Cl)c(C)c3[nH]2)N(C(=O)c2ccccc2-c2ccc(F)c(C)c2)C1 [Ex. 3.40] | 8 | 7 |
| COc1cc2nc(C3CCCN3C(=O)c3nc(C)sc3-c3cccc(Cl)c3)[nH]c2cc1OC (stereo not shown) [Ex. 1.110] | 164 | 46 |
| Cc1nc(C(=O)N2CCC[C@@]2(C)c2nc3cccc(C)c3[nH]2)c(-c2ccccc2)s1 [Example 5.1, (S)-(2-methyl-2-(7-methyl-1H-benzo[d]imidazol-2-yl)pyrrolidin-1-yl)(2-methyl-5-phenylthiazol-4-yl)methanone] | 26 | 13 |
| COc1ccc(-c2nccnc2C(=O)N2CCC[C@H]2c2nc3cccc(SC)c3[nH]2)cc1 [Ex. 1.72] | 112 | 180 |
| COc1cccc(-c2sc(C)nc2C(=O)N2CCC[C@@]2(C)c2nc3c(F)c(F)ccc3[nH]2)c1 [Ex. 5.213] | 16 | 51 |
| COc1cc2nc([C@@H]3[C@@H](C)CCN3C(=O)c3c(-n4nccn4)ccc(OC)c3F)[nH]c2cc1OC [Ex. 4.45] | 124 | 5780 |
| C[C@@]1(c2nc3cc(C(F)(F)F)ccc3[nH]2)CCCN1C(=O)c1cc(F)ccc1-n1nccn1 [Ex. 5.165] | 65 | 355 |
| Cc1ccc(C(=O)N2CCC[C@@]2(C)c2nc3cc(C)c(C)cc3[nH]2)c(-n2nccn2)c1 [Ex. 5.56] | 12 | 15 |
| Cc1ccc(-c2ccccc2F)c(C(=O)N2CCC[C@@]2(C)c2nc3cc(C(F)(F)F)c(Cl)cc3[nH]2)c1 [Ex. 5.151] | 20 | 40 |
| Cc1c(Cl)ccc2[nH]c([C@]3(C)CCCN3C(=O)c3ccccc3-n3nccn3)nc12 [Ex. 5.46] | 6 | 14 |
| CSc1cccc2nc([C@@H]3CCCN3C(=O)c3cncnc3-c3ccc(Cl)c(Cl)c3)[nH]c12 [Ex. 1.82] | 13 | 17 |
| COc1cc2nc([C@]3(C)CCCN3C(=O)c3cc(C)c(C)cc3-n3nccn3)[nH]c2cc1OC [Ex. 5.72] | 19 | 16 |
| Cc1cc2nc([C@]3(C)CCCN3C(=O)c3ccccc3-c3ccccc3F)[nH]c2cc1C [Ex. 5.103] | 46 | 70 |
| Cc1ccc(-c2ncccn2)c(C(=O)N2CC[C@H](C)[C@H]2c2nc3cc(Cl)c(C)cc3[nH]2)c1 [Ex. 4.180] | 8 | 304 |
| COc1ccc2nc([C@@H]3CCCN3C(=O)c3nc(C)sc3-c3cccc(Cl)c3)[nH]c2c1 [Ex. 1.25] | 364 | 90 |
| CSc1cccc2nc([C@@H]3CCCN3C(=O)c3ccc(C)cc3-n3nccn3)[nH]c12 [Ex. 1.169] | 37 | 3 |
| Cc1cc2[nH]c([C@@H]3[C@@H](C)CCN3C(=O)c3c(-c4ccccn4)ccc(C)c3F)nc2cc1Cl [Ex. 4.113] | 9 | 2040 |
| CSc1cccc2nc([C@@H]3CCCN3C(=O)c3ccccc3-n3nccn3)[nH]c12 [Ex. 1.76] | 279 | 17 |
| Cc1cc(C(=O)N2CCC[C@@]2(C)c2nc3cc(F)c(Br)cc3[nH]2)c(-n2nccn2)cc1C [Ex. 5.127] | 1 | 6 |
| C[C@@]1(c2nc3c(F)c(F)ccc3[nH]2)CCCN1C(=O)c1cc(F)ccc1-n1nccn1 [Ex. 5.204] | 360 | 900 |

| SMILES | IC50 [1] [nM] | IC50 [2] [nM] |
| --- | --- | --- |
| COc1cccc(-c2sc(C)nc2C(=O)N2CCC[C@@]2(C)c2nc3cc(OC(F)(F)F)ccc3[nH]2)c1 [Ex. 5.247] | 10 | 136 |
| COc1ccc(-n2nccn2)c(C(=O)N2CCC[C@H]2c2nc3ccc(OC)cc3[nH]2)c1 [Ex. 1.158] | 538 | 20 |
| Cc1ccc(-c2cccnc2)c(C(=O)N2CC[C@H](C)[C@H]2c2nc3c(C)c(Cl)ccc3[nH]2)c1F [Ex. 4.173] | 13 | 6330 |
| Cc1cc2[nH]c([C@@H]3[C@@H](C)CCN3C(=O)c3cc(C(F)(F)F)ccc3-c3ccccc3)nc2cc1Cl [Ex. 4.114] | 33 | 1360 |
| COc1ccc(-c2ccc(C)cc2C(=O)N2CCC[C@@]2(C)c2nc3c(C)c(C)ccc3[nH]2)cc1 [Ex. 5.112] | 12 | 16 |
| CSc1ccc2nc([C@@H]3CCCN3C(=O)c3c(F)cccc3-n3nccn3)[nH]c2c1 [Ex. 1.148] | 1170 | 44 |
| Cc1ccc(-c2cccc(OC(F)(F)F)c2)c(C(=O)N2CCC[C@@]2(C)c2nc3cc(C(F)(F)F)ccc3[nH]2)c1 [Ex. 5.184] | 300 | 413 |
| COc1cc2nc([C@@H]3[C@@H](C)CCN3C(=O)c3cc(C)ccc3-c3ncccn3)[nH]c2cc1OC [Ex. 4.179] | 27 | 69 |
| Cc1ccc(-n2nccn2)c(C(=O)N2CCC[C@@]2(C)c2nc3c(C)c(Cl)ccc3[nH]2)c1 [Ex. 5.2] | 2 | 5 |
| COc1ccc2nc([C@@H]3CCCN3C(=O)c3nc(C4CC4)sc3-c3ccc(C)cc3)[nH]c2c1 [Ex. 1.23] | 523 | 212 |
| COc1cc2nc([C@@H]3[C@@H](C)CCN3C(=O)c3sc(C)nc3-c3ccc(C)cc3)[nH]c2cc1OC [Ex. 4.51] | 99 | 677 |
| Cc1ccc(-c2ccc(C#N)cc2)c(C(=O)N2CCC[C@@]2(C)c2nc3cc(C(F)(F)F)c(Cl)cc3[nH]2)c1 [Ex. 5.160] | 38 | 113 |
| C[C@@]1(c2nc3cc(C(F)(F)F)ccc3[nH]2)CCCN1C(=O)c1cc(-c2cccnc2)ccc1-c1ccccc1 [Ex. 5.265] | 9 | 32 |
| CSc1ccc2nc([C@@H]3CCCN3C(=O)c3nc(C)sc3-c3cc(F)cc(F)c3)[nH]c2c1 [Ex. 1.44] | 404 | 120 |
| Cc1ccc(-n2nccn2)c(C(=O)N2CCC[C@@]2(C)c2nc3c(C(C)C)cccc3[nH]2)c1 [Ex. 5.29] | 13 | 59 |
| CO[C@H]1C[C@@H](c2nc3c(C)c(Cl)ccc3[nH]2)N(C(=O)c2nc(C)sc2-c2cccc(Cl)c2)C1 [Ex. 3.8] | 22 | 12 |
| Cc1ccc(-c2sc(C)nc2C(=O)N2CCC[C@@]2(C)c2nc3c(F)c(F)ccc3[nH]2)cc1 [Ex. 5.209] | 17 | 101 |
| Cc1nc(C(=O)N2CCCC2c2nc3cc(C(C)(C)C)ccc3[nH]2)c(-c2ccccc2)s1 (stereo not shown) [Ex. 1.124] | 119 | 42 |
| Cc1nc(C(=O)N2CC[C@H](C)[C@H]2c2nc3c(C(F)(F)F)cccc3[nH]2)c(-c2cccc(Cl)c2)s1 [Ex. 4.19] | 2 | 422 |

Next, values leading:

| IC50 [1] [nM] | IC50 [2] [nM] | SMILES |
| --- | --- | --- |
| 155 | 17 | C=C1C[C@@H](c2nc3cc(OC)ccc3[nH]2)N(C(=O)c2ccccc2-n2nccn2)C1 [Ex. 6.13] |
| 1 | 3 | Cc1nc(C(=O)N2CCC[C@@]2(C)c2nc3c(C)c(Cl)ccc3n2C)c(-c2cccc(Cl)c2)s1 [Ex. 7.33] |
| 44 | 4 | C=C1C[C@@H](c2nc3c(C)cc(C)cc3[nH]2)N(C(=O)c2cc(C)ccc2-n2nccn2)C1 [Ex. 6.62] |
| 2 | 0.7 | C=C1C[C@@H](c2nc3ccc(Cl)c(C)c3[nH]2)N(C(=O)c2nc(C)sc2-c2cccc(Br)c2)C1 [Ex. 6.123] |
| 16 | 84 | Cc1ccc(-c2cccc(F)c2)c(C(=O)N2CCC[C@@]2(C)c2nc3cc(C)c(C)cc3n2CC2CC2)c1 [Ex. 7.34] |
| 7 | 124 | Cc1ccc(-n2nccn2)c(C(=O)N2CCC[C@@]2(C)c2nc3cc(F)c(Br)cc3n2C)c1 [Ex. 7.32] |
| 6 | 7 | C=C1C[C@@H](c2nc3cc(Cl)c(C(F)(F)F)cc3[nH]2)N(C(=O)c2c(-n3nccn3)ccc(OC)c2F)C1 [Ex. 6.179] |
| 5 | 1 | C=C1C[C@@H](c2nc3c(Br)cccc3[nH]2)N(C(=O)c2nc(C)sc2-c2ccc(C)c(C)c2)C1 [Ex. 6.50] |
| 88 | 3 | C=C1C[C@@H](c2nc3c(C)c(C)ccc3[nH]2)N(C(=O)c2cc(C)ccc2-n2nccn2)C1 [Ex. 6.63] |
| 389 | 51 | C=C1C[C@@H](c2nc3cccc(Cl)c3[nH]2)N(C(=O)c2cc(C)ccc2-n2nccn2)C1 [Ex. 6.69] |
| 2 | 3 | Cc1nc(C(=O)N2CCC[C@@]2(C)c2nc3c(C)c(Cl)ccc3n2C)c(-c2ccccc2)s1 [Ex. 7.7] |
| 143 | 6 | C=C1C[C@@H](c2nc3cc(C)c(C)cc3[nH]2)N(C(=O)c2c(C)cccc2-n2nccn2)C1 [Ex. 6.199] |
| 213 | 23 | C=C1C[C@@H](c2nc3cc(OC)ccc3[nH]2)N(C(=O)c2nc(C)sc2-c2cccc(F)c2)C1 [Ex. 6.33] |
| 51 | 3 | C=C1C[C@@H](c2nc3cc(C(C)(C)C)ccc3[nH]2)N(C(=O)c2cc(Cl)ccc2-n2nccn2)C1 [Ex. 6.161] |
| 4 | 2 | C=C1C[C@@H](c2nc3c(C)c(Cl)ccc3[nH]2)N(C(=O)c2nc(C)sc2-c2ccccc2)C1 [Ex. 6.41] |
| 2 | 4 | C=C1CC(c2nc3c(C)cccc3[nH]2)N(C(=O)c2cc(C)sc2-c2ccc(C)c(C)c2)C1 (stereo not shown) [Ex. 6.79] |
| 8 | 4 | C=C1CC(c2nc3cc(C)c(C)cc3[nH]2)N(C(=O)c2cc(C)sc2-c2ccc(C)c(C)c2)C1 (racemic) [Ex. 6.75] |
| 148 | 25 | C=C1C[C@@H](c2nc3cc(C)c(C)cc3[nH]2)N(C(=O)c2cc(C)ccc2-n2cccn2)C1 [Ex. 6.201] |
| 422 | 45 | C=C1C[C@@H](c2nc3cc(OC)ccc3[nH]2)N(C(=O)c2nc(C)sc2-c2cc(F)cc(F)c2)C1 [Ex. 6.37] |
| 15 | 4 | C=C1C[C@@H](c2nc3ccc(Cl)c(C)c3[nH]2)N(C(=O)c2nc(C)sc2-c2cc(C)cc(C)c2)C1 [Ex. 6.124] |
